“Also recorded” adds a separate entry of the source.
What was measured:
human VR3 A−B− = molecular target: T1, human VR3 A−B− (Homo sapiens, UniProt Q9HBA0, DEL384-443/F526I); test: Two-electrode voltage clamp of Xenopus oocytes injected with VR3 A−B− cRNA, challenged with ligands; type: cell-based; settings: VR3 A−B− 1.5 ng injected per oocyte
T1 construct: expressed in transfected cells; host or cells: Xenopus laevis oocytes injected with in vitro transcribed cRNA
Method: When approximately 50% of the follicular layers were removed, Stage V and VI oocytes were selected and rinsed in media consisting of 75% OR-2 and 25% ND-96. The ND-96 contained: 100 mM NaCl, 2 mM KCl, 1 mM MgCl2, 1.8 mM CaCl2, 5 mM HEPES, 2.5 mM Na pyruvate, gentamicin (50 ug/ml), adjusted to pH 7.0 with NaOH.
(§1) Oocytes were injected with 50 nl of the human VR3 receptor RNA (0.3–5 ng) with or without co-injection of VR1 (2–3 ng). Control oocytes were injected with 50 nl of water. Oocytes were incubated for 1–13 days in ND-96 before analysis for expression of the human VR3. Incubations and collagenase digestion were carried out at room temperature. Injected oocytes were maintained in 48 well cell culture clusters (Costar; Cambridge, Mass.) at 18° C. […] The microelectrodes were filled with 3 M KCl, which had resistances of 1 and 2 MΩ. Cells were continuously perfused with ND96 at ˜10 ml/min at room temperature unless indicated. Membrane voltage was clamped at −70 mV unless indicated.

human VR3 A+B− = molecular target: T2, human VR3 A+B− (Homo sapiens, UniProt Q9HBA0, F526I); test: Two-electrode voltage clamp of Xenopus oocytes injected with VR3 A+B− cRNA, challenged with ligands; type: cell-based; parameters: key: NE: no effect
T2 construct: expressed in transfected cells; host or cells: Xenopus laevis oocytes injected with in vitro transcribed cRNA
T2 sequence (Q9HBA0 whole entry F526I): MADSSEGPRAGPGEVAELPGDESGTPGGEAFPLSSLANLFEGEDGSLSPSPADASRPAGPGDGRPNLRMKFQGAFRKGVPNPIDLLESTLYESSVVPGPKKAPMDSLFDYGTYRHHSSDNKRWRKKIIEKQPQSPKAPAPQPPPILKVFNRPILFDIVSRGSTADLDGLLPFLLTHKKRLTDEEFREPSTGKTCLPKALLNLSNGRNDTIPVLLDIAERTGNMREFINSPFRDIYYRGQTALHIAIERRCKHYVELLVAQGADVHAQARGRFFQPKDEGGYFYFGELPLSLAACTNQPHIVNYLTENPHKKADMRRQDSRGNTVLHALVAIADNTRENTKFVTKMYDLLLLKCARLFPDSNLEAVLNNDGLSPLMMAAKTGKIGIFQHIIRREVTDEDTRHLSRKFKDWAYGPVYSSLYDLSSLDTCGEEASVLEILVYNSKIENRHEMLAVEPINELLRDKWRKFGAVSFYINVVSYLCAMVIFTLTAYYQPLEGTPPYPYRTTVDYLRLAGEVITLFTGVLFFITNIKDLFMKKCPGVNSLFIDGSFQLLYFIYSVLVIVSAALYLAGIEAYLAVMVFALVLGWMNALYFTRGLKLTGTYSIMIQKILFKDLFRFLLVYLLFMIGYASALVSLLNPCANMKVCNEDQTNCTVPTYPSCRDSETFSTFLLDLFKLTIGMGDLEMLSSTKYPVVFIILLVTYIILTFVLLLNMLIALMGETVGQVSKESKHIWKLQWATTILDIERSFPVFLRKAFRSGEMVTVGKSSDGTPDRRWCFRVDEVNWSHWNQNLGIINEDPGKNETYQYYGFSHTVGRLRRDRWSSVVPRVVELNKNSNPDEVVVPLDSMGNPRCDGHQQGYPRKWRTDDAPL
Method: (§2) Xenopus laevis oocytes were prepared and injected using standard methods previously described and known in the art (Fraser et al., 1993). Ovarian lobes from adult female Xenopus laevis (Nasco, Fort Atkinson, Wis.) were teased apart, rinsed several times in nominally Ca-free saline containing: 82.5 mM NaCl, 2.5 mM KCl, 1 mM MgCl2, 5 mM HEPES, adjusted to pH 7.0 with NaOH (OR-2), and gently shaken in OR-2 containing 0.2% collagenase Type 1 (ICN Biomedicals, Aurora, Ohio) for 2–5 hours. When approximately 50% of the follicular layers were removed, Stage V and VI oocytes were selected and rinsed in media consisting of 75% OR-2 and 25% ND-96. The ND-96 contained: 100 mM NaCl, 2 mM KCl, 1 mM MgCl2, 1.8 mM CaCl2, 5 mM HEPES, 2.5 mM Na pyruvate, gentamicin (50 ug/ml), adjusted to pH 7.0 with NaOH. […] For in vitro transcription, pGEM HE (Liman et al., 1992) containing human VR3 was linearized with NheI and transcribed with T7 RNA polymerase (Promega) in the presence of the cap analog m7G(5′)ppp(5′)G. The synthesized cRNA was precipitated with ammonium acetate and isopropanol, and resuspended in 50 μl nuclease-free water. cRNA was quantified using formaldehyde gels (1% agarose, 1×MOPS , 3% formaldehyde) against 1,2 and 5 μl RNA markers (Gibco BRL, 0.24–9.5 Kb).
(§3) Oocytes were injected with 50 nl of the human VR3 receptor RNA (0.3–5 ng) with or without co-injection of VR1 (2–3 ng). Control oocytes were injected with 50 nl of water. Oocytes were incubated for 1–13 days in ND-96 before analysis for expression of the human VR3. Incubations and collagenase digestion were carried out at room temperature. Injected oocytes were maintained in 48 well cell culture clusters (Costar; Cambridge, Mass.) at 18° C. Whole cell agonist-induced currents were measured 1–14 days after injection with a conventional two-electrode voltage clamp (GeneClamp500, Axon Instruments, Foster City, Calif.) using standard methods previously described and known in the art (Dascal, 1987). The microelectrodes were filled with 3 M KCl, which had resistances of 1 and 2 MΩ. Cells were continuously perfused with ND96 at ˜10 ml/min at room temperature unless indicated. Membrane voltage was clamped at −70 mV unless indicated.
(§4) Oocytes were challenged with a variety of ligands, low pH, and depolarizing as well as hyperpolarizing voltage steps but there were no detectable differences in membrane conductance between human VR3-expressing oocytes and control oocytes [see Table 1]. However, human VR3 injected oocytes had properties that were different from controls in 4 respects. First, injection of VR3 A+B− cRNA caused oocytes to die. […] Second, all three isoforms of VR3 enhanced the heat-induced response (FIG. 10). Third, A+B− co-injection with human VR1 produced a ruthenium red sensitive perfusion-induced current (Iperfusion) (FIG. 11).

VR2 = molecular target: T3, VR2 (Rattus norvegicus, UniProt Q9WUD2); settings: noxious temperatures (>53 deg C.), oocytes and HEK cells, cited from earlier work
T3 construct: host or cells: oocytes and HEK cells (as reported)
T3 sequence (Q9WUD2 1-761): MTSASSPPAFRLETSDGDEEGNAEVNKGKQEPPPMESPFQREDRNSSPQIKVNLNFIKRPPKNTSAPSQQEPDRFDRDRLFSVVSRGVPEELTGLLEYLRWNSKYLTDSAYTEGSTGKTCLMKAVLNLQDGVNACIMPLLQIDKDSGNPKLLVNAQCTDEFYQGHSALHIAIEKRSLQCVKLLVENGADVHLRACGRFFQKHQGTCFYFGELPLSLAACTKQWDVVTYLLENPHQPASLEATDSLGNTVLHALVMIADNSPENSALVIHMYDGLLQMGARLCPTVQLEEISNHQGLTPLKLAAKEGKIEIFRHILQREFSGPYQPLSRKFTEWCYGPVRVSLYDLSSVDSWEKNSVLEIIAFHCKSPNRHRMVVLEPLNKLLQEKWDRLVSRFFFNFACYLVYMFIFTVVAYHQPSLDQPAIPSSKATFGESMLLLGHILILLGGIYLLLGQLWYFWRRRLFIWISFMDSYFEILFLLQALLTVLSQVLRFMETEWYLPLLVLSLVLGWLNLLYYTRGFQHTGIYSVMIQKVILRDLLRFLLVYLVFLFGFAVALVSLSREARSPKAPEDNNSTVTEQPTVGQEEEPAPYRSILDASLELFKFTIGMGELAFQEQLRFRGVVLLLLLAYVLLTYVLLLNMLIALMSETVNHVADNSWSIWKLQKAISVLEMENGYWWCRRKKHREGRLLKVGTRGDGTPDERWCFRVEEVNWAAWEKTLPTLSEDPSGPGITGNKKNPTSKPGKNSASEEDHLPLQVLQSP

human VR3 A+B+ = molecular target: T4, human VR3 A+B+ (Homo sapiens, UniProt Q9HBA0); test: Two-electrode voltage clamp of Xenopus oocytes injected with VR3 A+B+ cRNA, challenged with ligands; type: cell-based; parameters: key: NE: no effect; settings: VR3 A+B+ 5 ng injected per oocyte
T4 construct: expressed in transfected cells; host or cells: Xenopus laevis oocytes injected with in vitro transcribed cRNA
T4 sequence (Q9HBA0 with tags, fused parts or gaps): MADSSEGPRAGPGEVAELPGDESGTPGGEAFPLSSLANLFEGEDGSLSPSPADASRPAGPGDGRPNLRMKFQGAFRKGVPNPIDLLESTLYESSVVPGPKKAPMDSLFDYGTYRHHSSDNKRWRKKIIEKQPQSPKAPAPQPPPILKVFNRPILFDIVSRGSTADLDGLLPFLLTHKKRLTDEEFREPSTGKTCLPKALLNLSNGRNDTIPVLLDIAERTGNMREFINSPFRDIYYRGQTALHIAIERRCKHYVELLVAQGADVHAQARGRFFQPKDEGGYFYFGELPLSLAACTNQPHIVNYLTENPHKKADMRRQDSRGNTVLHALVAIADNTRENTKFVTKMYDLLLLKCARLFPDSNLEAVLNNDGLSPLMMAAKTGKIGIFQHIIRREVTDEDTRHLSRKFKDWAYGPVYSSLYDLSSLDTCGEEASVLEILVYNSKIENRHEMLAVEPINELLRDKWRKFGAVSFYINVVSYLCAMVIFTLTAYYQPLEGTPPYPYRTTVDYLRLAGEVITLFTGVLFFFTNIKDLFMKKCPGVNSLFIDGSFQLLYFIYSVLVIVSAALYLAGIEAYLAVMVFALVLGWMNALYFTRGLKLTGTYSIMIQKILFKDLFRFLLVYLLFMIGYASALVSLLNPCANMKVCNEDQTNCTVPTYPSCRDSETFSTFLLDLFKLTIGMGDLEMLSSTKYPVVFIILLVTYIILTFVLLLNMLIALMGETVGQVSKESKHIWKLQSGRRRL
Method: as §2, §3, §4

[1] = molecular target: T5, human VR1 together with human VR3 A+B− (Homo sapiens, UniProt Q8NER1); test: Capsaicin induced currents in oocytes expressing human VR1 with human VR3 A+B−; type: cell-based; settings: 1 uM capsaicin; VR1 and VR3 A+B− cRNA at equal ratios (2.9 ng each); holding voltage +50 mV
T5 construct: expressed in transfected cells; host or cells: Xenopus laevis oocytes co-injected with VR1 and VR3 A+B− cRNA (2.9 ng each)
T5 sequence (Q8NER1 whole entry): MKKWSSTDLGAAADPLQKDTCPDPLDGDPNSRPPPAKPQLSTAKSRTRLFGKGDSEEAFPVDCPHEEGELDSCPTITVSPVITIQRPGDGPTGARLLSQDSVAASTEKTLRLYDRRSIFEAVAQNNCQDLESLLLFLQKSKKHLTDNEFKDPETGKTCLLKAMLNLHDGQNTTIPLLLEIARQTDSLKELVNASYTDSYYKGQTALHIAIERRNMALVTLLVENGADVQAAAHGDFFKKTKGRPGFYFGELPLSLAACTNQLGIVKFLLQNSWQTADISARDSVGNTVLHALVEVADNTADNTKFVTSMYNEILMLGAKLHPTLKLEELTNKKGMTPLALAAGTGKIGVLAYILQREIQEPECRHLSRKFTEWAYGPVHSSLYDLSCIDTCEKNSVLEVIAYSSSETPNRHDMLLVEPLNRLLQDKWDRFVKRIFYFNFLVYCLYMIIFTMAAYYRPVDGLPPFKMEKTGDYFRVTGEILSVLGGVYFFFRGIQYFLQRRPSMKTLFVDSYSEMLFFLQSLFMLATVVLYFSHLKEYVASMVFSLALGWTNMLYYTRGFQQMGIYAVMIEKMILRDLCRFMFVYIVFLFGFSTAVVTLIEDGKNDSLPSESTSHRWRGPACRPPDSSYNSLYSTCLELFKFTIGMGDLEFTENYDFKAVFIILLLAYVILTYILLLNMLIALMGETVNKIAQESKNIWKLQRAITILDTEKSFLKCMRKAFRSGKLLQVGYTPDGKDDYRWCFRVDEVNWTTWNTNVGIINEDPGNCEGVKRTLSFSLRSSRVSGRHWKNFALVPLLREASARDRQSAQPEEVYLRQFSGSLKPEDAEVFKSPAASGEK
Method: as §1

capsaicin binding site = capsaicin binding site (Rattus norvegicus, UniProt O35433); settings: cited from earlier work
capsaicin binding site, sequence (O35433 whole entry): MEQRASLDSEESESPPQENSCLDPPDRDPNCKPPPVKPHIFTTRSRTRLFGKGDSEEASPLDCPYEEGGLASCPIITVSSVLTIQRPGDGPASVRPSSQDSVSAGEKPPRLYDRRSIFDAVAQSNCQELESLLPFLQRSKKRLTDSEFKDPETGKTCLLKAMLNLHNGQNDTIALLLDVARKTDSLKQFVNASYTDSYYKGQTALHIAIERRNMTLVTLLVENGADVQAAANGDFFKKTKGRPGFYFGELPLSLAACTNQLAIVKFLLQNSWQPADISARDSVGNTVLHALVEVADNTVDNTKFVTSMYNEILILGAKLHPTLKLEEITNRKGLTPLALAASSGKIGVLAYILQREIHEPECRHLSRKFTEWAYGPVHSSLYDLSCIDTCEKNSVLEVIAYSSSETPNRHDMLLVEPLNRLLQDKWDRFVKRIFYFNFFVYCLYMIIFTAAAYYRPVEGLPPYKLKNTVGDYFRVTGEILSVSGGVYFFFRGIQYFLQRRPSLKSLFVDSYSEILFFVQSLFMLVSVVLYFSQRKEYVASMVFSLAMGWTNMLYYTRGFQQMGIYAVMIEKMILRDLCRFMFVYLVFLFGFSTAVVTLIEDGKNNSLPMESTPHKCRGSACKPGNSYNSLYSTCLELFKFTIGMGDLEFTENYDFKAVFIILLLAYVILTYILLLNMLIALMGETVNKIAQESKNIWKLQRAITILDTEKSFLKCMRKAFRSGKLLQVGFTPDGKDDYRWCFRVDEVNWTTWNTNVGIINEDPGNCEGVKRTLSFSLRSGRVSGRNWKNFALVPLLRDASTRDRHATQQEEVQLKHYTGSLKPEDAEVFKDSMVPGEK

[2] = 1 uM, VR3 A+B− 3.25–4 ng injected per oocyte (also 0.4 ng)
[3] = 10 uM, VR3 A+B− 3.25–4 ng injected per oocyte (also 0.4 ng)
[4] = 100 uM, VR3 A+B− 3.25–4 ng injected per oocyte

T1 sequence (Q9HBA0 with tags, fused parts or gaps DEL384-443/F526I): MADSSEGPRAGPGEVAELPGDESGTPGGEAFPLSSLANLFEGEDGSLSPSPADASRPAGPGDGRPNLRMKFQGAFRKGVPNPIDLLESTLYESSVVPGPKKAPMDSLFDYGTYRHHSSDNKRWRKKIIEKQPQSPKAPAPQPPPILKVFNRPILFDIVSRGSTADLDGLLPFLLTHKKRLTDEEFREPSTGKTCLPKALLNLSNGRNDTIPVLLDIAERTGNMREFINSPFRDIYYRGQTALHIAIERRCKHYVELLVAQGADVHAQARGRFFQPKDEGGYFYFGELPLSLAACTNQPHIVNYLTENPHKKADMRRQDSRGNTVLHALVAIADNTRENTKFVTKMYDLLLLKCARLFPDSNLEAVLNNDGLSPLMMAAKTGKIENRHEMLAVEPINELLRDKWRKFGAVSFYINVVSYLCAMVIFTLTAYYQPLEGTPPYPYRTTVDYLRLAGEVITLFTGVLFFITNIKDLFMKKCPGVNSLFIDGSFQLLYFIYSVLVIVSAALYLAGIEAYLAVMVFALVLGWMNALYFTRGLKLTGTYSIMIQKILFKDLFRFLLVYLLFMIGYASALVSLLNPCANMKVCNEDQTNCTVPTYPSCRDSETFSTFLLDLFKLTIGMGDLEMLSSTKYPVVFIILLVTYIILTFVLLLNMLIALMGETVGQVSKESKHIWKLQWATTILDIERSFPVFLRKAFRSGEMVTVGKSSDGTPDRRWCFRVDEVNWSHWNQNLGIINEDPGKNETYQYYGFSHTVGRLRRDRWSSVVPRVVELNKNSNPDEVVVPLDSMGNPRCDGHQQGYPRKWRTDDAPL

CCCCC/C=C\C/C=C\C/C=C\C/C=C\CCCC(=O)NCCO [Anandamide]
Effect of stimulus on membrane conductance vs control oocytes (human VR3 A−B−; 1.15 uM): NE: n = 1 | Effect of stimulus on membrane conductance vs control oocytes (human VR3 A+B−; 1.15 uM, VR3 A+B− 0.4 ng injected): NE: n = 3 (0.4 ng

CCCCC/C=C\C/C=C\C/C=C\C/C=C\CCCC(=O)O [Arachadonic acid]
Effect of stimulus on membrane conductance vs control oocytes (human VR3 A−B−; 10 uM): NE: n = 3

Oc1cc2c(cc1O)CN(C(=S)NCCc1ccc(Cl)cc1)CCC2 [CPZ, capsazepine]
Sensitivity of the VR2 heat response to CPZ (VR2): not sensitive

COc1cc(CNC(=O)CCCCC=CC(C)C)ccc1O [Capsaicin, 8-methyl-N-vanillyl-6-nonenamide]
Effect of stimulus on membrane conductance vs control oocytes (human VR3 A+B+; 1 uM): NE: n = 3 | Effect of stimulus on membrane conductance vs control oocytes (human VR3 A−B−; 1 uM): NE: n = 3 | Response to capsaicin when VR1 is co-expressed with VR3 A+B−, compared with VR1 alone [1]: altered the responsiveness; also recorded: diminished | Effect of stimulus on membrane conductance vs control oocytes (human VR3 A+B−; [2]): NE: n = 3 (n = 3 0.4 ng)

C=CCc1ccc(O)c(OC)c1 [Eugenol]
Effect of stimulus on membrane conductance vs control oocytes (human VR3 A+B+; 10 uM): NE: n = 3 | Effect of stimulus on membrane conductance vs control oocytes (human VR3 A−B−; 10 uM): NE: n = 3 | Effect of stimulus on membrane conductance vs control oocytes (human VR3 A+B−; [3]): NE: n = 3 (n = 3 0.4 ng)

CCCCC[C@H](O)CC(=O)CCc1ccc(O)c(OC)c1 [Gingerol]
Effect of stimulus on membrane conductance vs control oocytes (human VR3 A+B+; 10 uM): NE: n = 3 | Effect of stimulus on membrane conductance vs control oocytes (human VR3 A−B−; 10 uM): NE: n = 3 | Effect of stimulus on membrane conductance vs control oocytes (human VR3 A+B−; [3]): NE: n = 3 (n = 1 0.4 ng)

COc1ccccc1O [Guiaicol]
Effect of stimulus on membrane conductance vs control oocytes (human VR3 A+B+; 10 uM): NE: n = 3 | Effect of stimulus on membrane conductance vs control oocytes (human VR3 A−B−; 10 uM): NE: n = 3 | Effect of stimulus on membrane conductance vs control oocytes (human VR3 A+B−; [3]): NE: n = 3 (n = 1 0.4 ng)

CCCCCCCC/C=C\CCCCCCCC(=O)NCc1ccc(O)c(OC)c1 [Olvanil]
Effect of stimulus on membrane conductance vs control oocytes (human VR3 A+B+; 10 uM): NE: n = 3 | Effect of stimulus on membrane conductance vs control oocytes (human VR3 A−B−; 10 uM): NE: n = 3 | Effect of stimulus on membrane conductance vs control oocytes (human VR3 A+B−; [3]): NE: n = 3 (n = 1 0.4 ng)

C=C(C)[C@]12C[C@@H](C)[C@@]34O[C@](Cc5ccccc5)(O[C@@H]1[C@@H]3C=C(COC(=O)Cc1ccc(O)c(OC)c1)C[C@]1(O)C(=O)C(C)=C[C@@H]41)O2 [Resiniferatoxin, resiniferatoxin]
Effect of stimulus on membrane conductance vs control oocytes (human VR3 A+B+; 1 uM): NE: n = 3 | Effect of stimulus on membrane conductance vs control oocytes (human VR3 A−B−; 1 uM): NE: n = 3 | Binding affinity at the capsaicin binding site (capsaicin binding site): nanomolar affinity | Effect of stimulus on membrane conductance vs control oocytes (human VR3 A+B−; [2]): NE: n = 3 (n = 1 0.4 ng)

N.N.N.N.N.N.N.N.N.N.N.N.N.N.[Cl-].[Cl-].[Cl-].[Cl-].[Cl-].[Cl-].[O-2].[O-2].[Ru+3].[Ru+3].[Ru+4] [ruthenium red]
Block of the VR2 heat response (VR2; 10 μM ruthenium red): nearly completely blocked

NCCc1ccccc1 [β-phenylethylamine]
Effect of stimulus on membrane conductance vs control oocytes (human VR3 A+B−; [4]): NE: n = 2

O=C(O)CCCO [γ-hydroxybutyrate]
Effect of stimulus on membrane conductance vs control oocytes (human VR3 A+B−; [4]): NE: n = 2

Source: US7186803B2, “Human vanilloid receptor VR3 protein” (Ortho-McNeil Pharmaceutical, Inc., priority 2000, dated 2007)
